Assay results published in patent US20260347310A1, “PHENALKYLAMINES AND METHODS OF MAKING AND USING THE SAME” (GILGAMESH PHARMACEUTICALS, INC., priority 2022, published 2026).
Read-outs that look alike come from different tables or passages of the source.

Test: Pharmacokinetics in plasma of rats after oral and intravenous dosing; oral bioavailability
Type: in vivo, Sprague Dawley rats
Experimental: The pharmacokinetics of disclosed compounds were determined in the plasma of rats after oral and intravenous dosing, with the results presented in Table 13.
Animals. Male Sprague Dawley rats were used in these studies. Animals were randomly assigned to treatment groups and were fasted overnight before oral dosing.
Drugs. The test compound was dissolved in 10% captisol (1) or 10% DMSO and 90% normal saline (2a) and administered intravenously (iv) at 2 mg/kg (1) or 1 mg/kg (2a) or orally (po) at 10 mg/kg (1) or 1 mg/kg (2a), calculated based on freebase, and at a volume of 10 mL/kg body weight for oral administration and 5 mL/kg for IV administration. The compounds were tested as the racemates.
Sample Collection and Bioanalysis. Blood samples were collected through the external jugular vein (via cannulation) at 0.083, 0.25, 0.5, 1, 2, 4, 8, and 24 h post-dose (total 8 time points/rat, 4 rats per administration route). At each time point, ~0.2 mL of blood was withdrawn and transferred into a pre-labeled 0.5-mL micro centrifuge tube containing 4 μL of 200 mM K2EDTA solution as anticoagulant and mixed gently by inverting the tube to facilitate mixing of anticoagulant with the blood. Blood samples were kept on ice until centrifugation. The collected blood samples were centrifuged at 4,000 rpm for 10 min at 4° C. Plasma samples were separated after centrifugation, transferred into pre-labeled tubes, and stored at −70° C. until bioanalysis. For bioanalysis, a 200-μL aliquot of internal standard prepared in acetonitrile (cetirizine, 50 ng/mL) was added (except for blank, where 200 μL of acetonitrile was added) to a 96-well Solvinert filter plate followed by 5 μL of a study plasma sample or spiked calibration standard. The filter plate was then centrifuged for 5 minutes at a speed of 2,500 rpm at 4° C. with a 96-well sample collection plate. Following centrifugation, collected samples were analyzed using a fit-for-purpose LC-MS/MS method, with authentic samples of the analyte used for calibration and identification.
Data Analysis. Pharmacokinetic parameters were estimated using the non-compartmental analysis tool of Phoenix® WinNonlin software (Ver 8.1). The drug concentrations of samples below the lower limit of quantitation (LLOQ) were designated as zero.

**Q.** Which C0 (rat plasma, IV 1 mg/kg, racemate, 10% DMSO and 90% normal saline) does the source give for CCC(N)Cc1cc(OC)c(CCCCCC(F)(F)F)cc1OC (racemic) [Compound 2a, 1-(2,5-dimethoxy-4-(6,6,6-trifluorohexyl)phenyl)butan-2-amine] here?
**A.** 75.9 ng/mL

**Q.** And the AUC(0-t) (rat plasma, IV 1 mg/kg, racemate, 10% DMSO and 90% normal saline, read-out: AUC0-last (iv))?
**A.** 90 ng·h/mL

**Q.** And the half-life (rat plasma, IV 1 mg/kg, racemate, 10% DMSO and 90% normal saline, read-out: t1/2 (iv) (converted))?
**A.** 2.71 h

**Q.** And the bioavailability (rat plasma, IV and PO 1 mg/kg, racemate, 10% DMSO and 90% normal saline, read-out: F (absolute oral bioavailability))?
**A.** 28%

**Q.** What about the Cmax (rat plasma, PO 1 mg/kg, racemate, 10% DMSO and 90% normal saline, fasted) of the same compound?
**A.** 29.7 ng/mL

**Q.** And the AUC(0-t) (rat plasma, PO 1 mg/kg, racemate, 10% DMSO and 90% normal saline, fasted, read-out: AUC0-last (po))?
**A.** 25 ng·h/mL

**Q.** And the half-life (rat plasma, PO 1 mg/kg, racemate, 10% DMSO and 90% normal saline, fasted, read-out: t1/2 (po) (converted))?
**A.** 3.07 h

**Q.** And the “absolute oral bioavailability (F) (in words)” value (rats, 2a 1 mg/kg iv and 1 mg/kg po, 1 2 mg/kg iv and 10 mg/kg po, racemates)?
**A.** improved absolute oral bioavailability (F), compared to 1
